Reference: publication PMC10247784, “Physiological activation of human and mouse bitter taste receptors by bile acids” (Communications Biology, 2023)

Molecular target: T1, mouse Tas2r126 (Mus musculus, UniProt P59532)
T1 construct: expressed in transfected cells; host or cells: HEK293T-Gα16gust44
T1 sequence (P59532 1-308): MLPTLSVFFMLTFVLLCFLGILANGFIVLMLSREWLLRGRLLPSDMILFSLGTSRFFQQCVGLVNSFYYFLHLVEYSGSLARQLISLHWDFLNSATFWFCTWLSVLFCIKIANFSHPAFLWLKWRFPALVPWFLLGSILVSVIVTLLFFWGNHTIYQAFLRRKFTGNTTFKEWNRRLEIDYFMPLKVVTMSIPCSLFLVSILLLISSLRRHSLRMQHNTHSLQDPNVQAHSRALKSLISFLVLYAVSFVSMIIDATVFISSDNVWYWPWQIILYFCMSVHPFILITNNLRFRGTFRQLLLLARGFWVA
Experiment: Calcium imaging assay (FLIPR), HEK293T-Gα16gust44 cells transfected with mouse Tas2r126
Assay type: cell-based
Method: This set of bile acids was chosen because of their commercial availability in high purities, their diversity within the class of bile acids and their previous detection and quantitation in human blood. Stock solutions were prepared in DMSO.
As basal growth medium for the HEK293T-Gα16gust44 cell line[17],[59] served Dulbecco’s modified eagle medium (DMEM) (Thermo Fisher Scientific, Darmstadt, Germany) supplemented with 10 % fetal bovine serum (Sigma-Aldrich, Steinheim, Germany), 2 mM L-glutamine (Sigma-Aldrich, Steinheim, Germany), 100 units/ml penicillin (Sigma Aldrich, Steinheim, Germany) and 100 µg/ml streptomycin (Sigma Aldrich, Steinheim, Germany). Growth conditions were 37 °C, 5 % CO2 and saturated air-humidity[60].
HEK293T-Gα16gust44 cells were seeded on poly-D-lysine (10 µg/ml) coated 96-well plates to reach a confluence of 40-60 % the next day. For transient transfection 150 ng of plasmid DNA containing the receptor of interest and 0.3 µl lipofectamine 2000 (Thermo Fisher Scientific, Darmstadt, Germany) per well were used and transfection took place according to the manual of lipofectamine 2000. […] The empty vector DNA (mock) was transfected as negative control[14],[41].
Cells were loaded using the calcium-sensitive fluorescent dye Fluo-4-AM (Abcam, Cambridge, Great Britain) in the presence of 2.5 mM probenecid (Sigma-Aldrich, Steinheim, Germany) the day after transfection[13],[41]. 1 h after loading, cells were washed with C1 buffer using a BioTek Cell Washer, incubated in the dark for half an hour and washed again. For automated agonist application and measurement of fluorescence changes, a FLIPR^TETRA device (Molecular Devices, San José, United States) was used. Viability of cells was tested by application of 100 nM Somatostatin 14 (Bachem, Bubendorf, Switzerland)[42].
Measured data were negative control corrected by subtracting the signal of the mock-transfected cells and exported to Microsoft Excel using the FLIPR software ScreenWorks 4.2. In Microsoft Excel software, standardization of maximum fluorescence intensities to the basal fluorescence and normalization to the buffer-only control was done to calculate the relative fluorescence changes (ΔF/F).
Initial screening experiments performed in duplicate wells were confirmed by at least one replication and representative traces were selected for display. All dose-response relationships were determined by three independent experiments (biological replicates) performed in duplicates (technical replicates). Threshold concentrations, defined as lowest substance concentrations leading to statistically significant elevated fluorescence changes in receptor-transfected cells compared with empty vector-transfected cells, were determined using SigmaPlot with Student’s t-test to evaluate statistical significance (p < 0.01).

C[C@H](CCC(=O)O)[C@H]1CC[C@H]2[C@@H]3[C@H](O)C[C@@H]4C[C@H](O)CC[C@]4(C)[C@H]3C[C@H](O)[C@]12C [Cholic Acid, cholic acid]
RLU (Time 0 s): 0 RLU
RLU (Time 2 s): 6.32 RLU
RLU (Time 4 s): -17.4742 RLU
RLU (Time 6 s): 5.446 RLU
RLU (Time 8 s): 10.1237 RLU
RLU (Time 12 s): 18.7423 RLU
RLU (Time 14 s): -3.953 RLU
RLU (Time 16 s): -7.647 RLU
RLU (Time 18 s): 11.4341 RLU
RLU (Time 18.781 s): -6.409 RLU
RLU (Time 20.781 s): -22.1196 RLU
RLU (Time 22.781 s): 57.6732 RLU
RLU (Time 24.781 s): 119.461 RLU
RLU (Time 26.781 s): 150.574 RLU
RLU (Time 28.781 s): 265.727 RLU
RLU (Time 30.781 s): 370.327 RLU
RLU (Time 32.781 s): 482.177 RLU
RLU (Time 34.781 s): 570.785 RLU
RLU (Time 36.781 s): 665.431 RLU
RLU (Time 38.781 s): 689.631 RLU
RLU (Time 40.781 s): 736.63 RLU
RLU (Time 42.781 s): 773.753 RLU
RLU (Time 44.781 s): 819.752 RLU
RLU (Time 46.781 s): 829.41 RLU
RLU (Time 48.781 s): 884.282 RLU
RLU (Time 50.781 s): 903.917 RLU
RLU (Time 52.781 s): 907.88 RLU
RLU (Time 54.781 s): 897.488 RLU
RLU (Time 56.781 s): 894.491 RLU
RLU (Time 58.781 s): 914.837 RLU
RLU (Time 60.781 s): 925.711 RLU
RLU (Time 62.781 s): 919.134 RLU
RLU (Time 64.781 s): 943.476 RLU
RLU (Time 66.781 s): 923.886 RLU
RLU (Time 68.781 s): 937.947 RLU
RLU (Time 70.781 s): 951.397 RLU
RLU (Time 72.781 s): 951.831 RLU
RLU (Time 74.781 s): 959.178 RLU
RLU (Time 76.781 s): 961.002 RLU
RLU (Time 78.781 s): 948.826 RLU
RLU (Time 80.781 s): 939.325 RLU
RLU (Time 82.781 s): 951.223 RLU
RLU (Time 84.781 s): 936.985 RLU
RLU (Time 86.781 s): 922.709 RLU
RLU (Time 88.781 s): 911.664 RLU
RLU (Time 90.781 s): 942.653 RLU
RLU (Time 92.781 s): 908.427 RLU
RLU (Time 94.781 s): 912.682 RLU
RLU (Time 96.781 s): 907.486 RLU
RLU (Time 98.781 s): 899.352 RLU
RLU (Time 100.781 s): 901.766 RLU
RLU (Time 102.781 s): 898.622 RLU
RLU (Time 104.781 s): 885.627 RLU
RLU (Time 106.781 s): 885.616 RLU
RLU (Time 108.781 s): 859.767 RLU
RLU (Time 110.781 s): 849.777 RLU
RLU (Time 112.781 s): 824.416 RLU
RLU (Time 114.781 s): 805.273 RLU
RLU (Time 116.781 s): 784.094 RLU
RLU (Time 118.781 s): 781.757 RLU
RLU (Time 120.781 s): 784.883 RLU
RLU (Time 122.781 s): 777.647 RLU
RLU (Time 124.781 s): 774.835 RLU
RLU (Time 126.781 s): 752.144 RLU
RLU (Time 128.781 s): 755.376 RLU
RLU (Time 130.781 s): 741.203 RLU
RLU (Time 132.781 s): 735.986 RLU
RLU (Time 134.781 s): 705.295 RLU
RLU (Time 136.781 s): 715.373 RLU
RLU (Time 137.563 s): 694.021 RLU
RLU (Time 143.563 s): 674.141 RLU
RLU (Time 149.563 s): 648.129 RLU
RLU (Time 155.563 s): 630.623 RLU
RLU (Time 161.563 s): 621.371 RLU
RLU (Time 167.563 s): 569.451 RLU
RLU (Time 173.563 s): 563.656 RLU
RLU (Time 179.563 s): 519.424 RLU
RLU (Time 185.563 s): 518.545 RLU
RLU (Time 191.563 s): 496.035 RLU
RLU (Time 197.563 s): 519.073 RLU
RLU (Time 203.563 s): 511.704 RLU
RLU (Time 209.563 s): 507.09 RLU
RLU (Time 215.563 s): 499.344 RLU
RLU (Time 221.563 s): 510.025 RLU
RLU (Time 227.563 s): 524.879 RLU
RLU (Time 233.563 s): 522.75 RLU
RLU (Time 239.563 s): 547.672 RLU
RLU (Time 245.563 s): 498.436 RLU
RLU (Time 293.563 s): 489.083 RLU
RLU (Time 299.563 s): 473.554 RLU
RLU (Time 305.563 s): 449.101 RLU
RLU (Time 311.563 s): 467.667 RLU
RLU (Time 317.563 s): 473.372 RLU
RLU (Time 323.563 s): 461.769 RLU
RLU (Time 329.563 s): 454.066 RLU
RLU (Time 335.563 s): 446.164 RLU
RLU (Time 341.563 s): 461.362 RLU
RLU (Time 347.563 s): 456.539 RLU
RLU (Time 353.563 s): 466.548 RLU
RLU (Time 359.563 s): 455.13 RLU
Activation threshold concentration Tas2r126 (p < 0.01 vs empty vector): 100 µM
